Results from patent US10336761B2, “TGFβ receptor antagonist” (BRISTOL-MYERS SQUIBB COMPANY, priority 2015, dated 2019).

Target: HIS-TGFβR1 T204D (Homo sapiens (Human), UniProt P36897, T204D)
Assay: HTRF probe-displacement assay, HIS-TGFβR1 T204D
Assay type: binding
Settings: 1 hour at room temperature

Sequence of HIS-TGFβR1 T204D (P36897 34-503 T204D): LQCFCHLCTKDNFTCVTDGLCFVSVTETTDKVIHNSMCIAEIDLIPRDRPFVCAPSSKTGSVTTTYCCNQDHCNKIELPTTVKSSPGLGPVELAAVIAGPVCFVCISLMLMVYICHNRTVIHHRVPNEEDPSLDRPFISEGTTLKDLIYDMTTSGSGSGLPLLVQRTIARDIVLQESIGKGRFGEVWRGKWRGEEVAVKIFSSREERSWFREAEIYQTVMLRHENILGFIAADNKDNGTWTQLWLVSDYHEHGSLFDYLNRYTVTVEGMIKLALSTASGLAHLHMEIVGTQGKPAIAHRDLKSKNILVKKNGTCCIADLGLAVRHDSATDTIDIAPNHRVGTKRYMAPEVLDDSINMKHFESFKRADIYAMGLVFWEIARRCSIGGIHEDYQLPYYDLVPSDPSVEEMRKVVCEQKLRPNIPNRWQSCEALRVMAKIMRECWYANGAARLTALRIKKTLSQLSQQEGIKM

Row | Structure (SMILES) | IC50 [µM]
1 | COc1cccc(-c2nc(Nc3ccncc3F)c3c(C(O)CNCCN4CCS(=O)(=O)CC4)ccn3n2)n1 (centres unmarked) [Example 131, 4-{2-[(2-{4-[(3-fluoropyridin-4-yl)amino]-2-(6-methoxypyridin-2-yl)pyrrolo[2,1-f][1,2,4]triazin-5-yl}-2-hydroxyethyl)amino]ethyl}-1,4-thiomorpholine-1,1-dione] | 0.056
2 | COc1cccc(-c2nc(Nc3ccnc(NCCN4CCC(O)CC4)c3)c3cccn3n2)n1 [Example 132, 1-{2-[(4-{[2-(6-methoxypyridin-2-yl)pyrrolo[2,1-f][1,2,4]triazin-4-yl]amino}pyridin-2-yl)amino]ethyl}piperidin-4-ol] | 0.7
3 | COc1cccc(-c2nc(Nc3ccnc(NCCN4CCC(F)(F)CC4)c3)c3cccn3n2)n1 [Example 34, 2-N-[2-(4,4-difluoropiperidin-1-yl)ethyl]-4-N-[2-(6-methoxypyridin-2-yl)pyrrolo[2,1-f][1,2,4]triazin-4-yl]pyridine-2,4-diamine] | 0.48
4 | COc1cccc(-c2nc(Nc3ccncc3F)c3c(C(O)CNCCN4CCCCC4)ccn3n2)n1 (centres unmarked) [Example 130, 1-{4-[(3-fluoropyridin-4-yl)amino]-2-(6-methoxypyridin-2-yl)pyrrolo[2,1-f][1,2,4]triazin-5-yl}-2-{[2-(piperidin-1-yl)ethyl]amino}ethan-1-ol] | 0.54
5 | Cc1csc(-c2nc(Nc3ccncc3F)c3cccn3n2)n1 [Example 12, 3-fluoro-N-[2-(4-methyl-1,3-thiazol-2-yl)pyrrolo[2,1-f][1,2,4]triazin-4-yl]pyridin-4-amine] | 0.0008
6 | COc1cccc(-c2nc(Nc3ccnc(NCCCN(C)C)c3)c3cccn3n2)n1 [Example 135, 2-N-[3-(dimethylamino)propyl]-4-N-[2-(6-methoxypyridin-2-yl)pyrrolo[2,1-f][1,2,4]triazin-4-yl]pyridine-2,4-diamine] | 0.088

More lines, now with the values ahead:

Row | IC50 [µM] | Structure (SMILES)
7 | 0.0036 | CC(=O)Nc1cc(Nc2nc(-c3ccc(F)c(C)n3)nn3cccc23)c(F)cn1 [Example 333, N-(5-fluoro-4-{[2-(5-fluoro-6-methylpyridin-2-yl)pyrrolo[2,1-f][1,2,4]triazin-4-yl]amino}pyridin-2-yl)acetamide]
8 | 0.049 | CC(C)(O)CNC(=O)c1cnccc1Nc1nc(-c2cccc(C(F)F)n2)nn2cccc12 [Example 188, 4-({2-[6-(difluoromethyl)pyridin-2-yl]pyrrolo[2,1-f][1,2,4]triazin-4-yl}amino)-N-(2-hydroxy-2-methylpropyl)pyridine-3-carboxamide]
9 | 0.016 | O=C(NCCCN1CCCC1)c1cnccc1Nc1nc(-c2ccccn2)nn2cccc12 [Example 150]
10 | 0.0017 | O=C(CN1CCCCC1)Nc1cc(Nc2nc(-c3cccc(C(F)(F)F)n3)nn3cccc23)ccn1 [Example 329, 2-(piperidin-1-yl)-N-[4-({2-[6-(trifluoromethyl)pyridin-2-yl]pyrrolo[2,1-f][1,2,4]triazin-4-yl}amino)pyridin-2-yl]acetamide]
11 | 0.0007 | OC1(CCNCc2ccn3nc(-c4ccccn4)nc(Nc4ccncc4F)c23)CCCC1 [Example 240, 1-{2-[({4-[(3-fluoropyridin-4-yl)amino]-2-(pyridin-2-yl)pyrrolo[2,1-f][1,2,4]triazin-5-yl}methyl)amino]ethyl}cyclopentan-1-ol]
12 | 0.014 | Fc1cccc(-c2nc(Nc3ccncc3)c3cccn3n2)n1 [Example 213, N-[2-(6-fluoropyridin-2-yl)pyrrolo[2,1-f][1,2,4]triazin-4-yl]pyridin-4-amine]
13 | 0.001 | CN(C)C1CCC(NCc2ccn3nc(-c4ccccn4)nc(Nc4ccncc4F)c23)CC1 (centres unmarked) [Example 245, 4-N-({4-[(3-fluoropyridin-4-yl)amino]-2-(pyridin-2-yl)pyrrolo[2,1-f][1,2,4]triazin-5-yl}methyl)-1-N, 1-N-dimethylcyclohexane-1,4-diamine]
14 | 1.2 | O=C(c1cnccc1Nc1nc(-c2cccc(C(F)F)n2)nn2cccc12)N1CCC(O)(c2ccccc2)CC1 [Example 185, 1-[4-({2-[6-(difluoromethyl)pyridin-2-yl]pyrrolo[2,1-f][1,2,4]triazin-4-yl}amino)pyridine-3-carbonyl]-4-phenylpiperidin-4-ol]
